Test results: paper PMC12000319, “Proton conductance by human uncoupling protein 1 is inhibited by purine and pyrimidine nucleotides” (The EMBO Journal, 2025)
“And” between values parts separate entries of the source, which are not always exact repeats. Equal values may be shown once. Read-outs that look alike come from different tables or passages of the source.

How the values were obtained:
UCP1 [1] = target: T1, UCP1 (Homo sapiens, UniProt P25874); experiment: Isothermal titration calorimetry of nucleotide binding; set-up: isotherm data point (enthalpy change per injection): unit not given here; settings: for isotherm data point (enthalpy change per injection): representative isotherm;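 as to all read-outs here: purified human UCP1 in cacodylate buffer with lauryl maltose neopentyl glycol and cardiolipin, titrated with nucleotides, isotherms fitted by one-site model yielding ΔH, Kd and stoichiometry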
T1 construct: His8 (N, cleaved yes); Factor Xa protease cleavage site (N, cleaved yes); made in house; host or cells: Saccharomyces cerevisiae strain W303.1B
T1 sequence (P25874 1-307): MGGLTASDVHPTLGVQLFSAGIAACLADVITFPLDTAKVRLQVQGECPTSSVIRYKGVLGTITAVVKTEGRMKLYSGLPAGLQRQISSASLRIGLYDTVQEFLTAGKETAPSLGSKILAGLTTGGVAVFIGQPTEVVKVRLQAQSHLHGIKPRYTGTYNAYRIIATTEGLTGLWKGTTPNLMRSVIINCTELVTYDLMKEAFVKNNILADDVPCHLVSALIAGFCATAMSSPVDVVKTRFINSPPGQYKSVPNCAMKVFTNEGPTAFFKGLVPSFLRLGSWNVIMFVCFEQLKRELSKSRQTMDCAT

UCP1 [2] = target: T1, UCP1; experiment: Differential scanning fluorimetry (nanoDSF) thermal stability shift assay; type: binding
UCP1 [3] = target: T1, UCP1; experiment: Liposome reconstitution and proton conductance assay (pyranine fluorescence); type: biochemical; settings: UCP1 proteoliposomes, 200 µM oleic acid + 500 µM nucleotide, 2.5 µM valinomycin; single reconstitutions
human OGC (SLC25A11) = target: T2, human OGC (SLC25A11) (Homo sapiens, UniProt Q02978); experiment: Differential scanning fluorimetry (nanoDSF) thermal stability shift assay; type: binding; settings: 1 mM nucleotide, pH 6.0, single repeats (source data Fig. 4A)
T2 construct: His8 (N, cleaved yes); Factor Xa protease cleavage site (N, cleaved yes); made in house; host or cells: Saccharomyces cerevisiae strain W303.1B
T2 sequence (Q02978 1-314): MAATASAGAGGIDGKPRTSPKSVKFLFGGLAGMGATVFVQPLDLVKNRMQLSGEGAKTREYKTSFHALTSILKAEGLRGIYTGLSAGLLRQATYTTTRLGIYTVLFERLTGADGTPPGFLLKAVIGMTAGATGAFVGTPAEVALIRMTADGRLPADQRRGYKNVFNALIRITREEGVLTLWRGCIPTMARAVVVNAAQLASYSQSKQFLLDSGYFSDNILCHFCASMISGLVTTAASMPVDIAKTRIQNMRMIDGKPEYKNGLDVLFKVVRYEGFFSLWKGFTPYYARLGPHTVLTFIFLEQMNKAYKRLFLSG
Description: UCP1 is phylogenetically related to mitochondrial dicarboxylate carriers, gaining thermogenic properties as a later evolutionary development (Hughes et al, [2009]; Robinson et al, [2008]). The mitochondrial dicarboxylate carrier (DIC, SLC25A10) and oxoglutarate carrier (OGC, SLC25A11) are most closely related to UCP1 (Gaudry et al, [2019]; Hughes et al, [2009]) and share many residues involved in nucleotide binding in UCP1, such as the arginine triplet at the contact points, R92 and Q85 (Jones et al, [2024]). Given the similarity of the central cavity of UCP1, OGC and DIC, we tested whether the dicarboxylate carriers have the ability to bind nucleotides. For this purpose, we purified human DIC and OGC, and tested whether nucleotides were able to generate a thermostability shift, as observed for their physiological substrates (Pyrihová et al, [2024]). However, all tested nucleotides caused a negligible shift with both DIC or OGC at all pH values tested between 6.0 and 8.0 (Fig. 4A; Appendix Fig. S5). Thus, despite having many residues in common (Fig. 4B–D), UCP1 has evolved to have a few specific residues that allow high-affinity binding of nucleotides without a strong selection for nucleobase.
Differential scanning fluorimetry (nanoDSF) (Alexandrov et al, [2008]) was carried out with 2 µg UCP1, DIC or OGC protein (100 mM MES/HEPES, pH range 6.0–8.0, 25 mM NaCl, 1 mM TCEP, 0.01% lauryl maltose neopentyl glycol and 0.01 mg/mL tetraoleoyl cardiolipin) and, when required, 1 mM nucleotide, as indicated. The proteins have the following number of tryptophans: UCP1 (two); OGC (two); DIC (one). The samples were loaded into nanoDSF-grade standard glass capillaries. The temperature was increased by […] every minute from 25 to 95 °C, the intrinsic fluorescence was measured in a Prometheus NT.48 nanoDSF device, and the apparent Tm was calculated with the PR.ThermControl software (NanoTemper Technologies).

Cc1cn([C@H]2C[C@H](O)[C@@H](COP(=O)(O)OP(=O)(O)OP(=O)(O)O)O2)c(=O)[nH]c1=O [dTTP, thymidine triphosphate]
binding affinity to UCP1 (in words) (UCP1 [1]; ITC): highest binding affinities | Kd (UCP1 [1]; ITC, pH 6.0, 20 °C, mean ± standard deviation of three biological repeats (Fig. 2A-E)): 1.13 ± 0.09 µM | Kd (UCP1 [1]; ITC, single biological repeats (source data Fig. 2F)): 1.24 µM and 1.09 µM and 1.07 µM | isotherm data point (enthalpy change per injection) (UCP1 [1]; Molar ratio (Nucleotide/UCP) 0.120417, pH 6.0, 20 °C): -22.0628 | isotherm data point (enthalpy change per injection) (UCP1 [1]; Molar ratio (Nucleotide/UCP) 0.181226, pH 6.0, 20 °C): -22.1545 | isotherm data point (enthalpy change per injection) (UCP1 [1]; Molar ratio (Nucleotide/UCP) 0.242439, pH 6.0, 20 °C): -21.2571 | isotherm data point (enthalpy change per injection) (UCP1 [1]; Molar ratio (Nucleotide/UCP) 0.304059, pH 6.0, 20 °C): -20.8684 | isotherm data point (enthalpy change per injection) (UCP1 [1]; Molar ratio (Nucleotide/UCP) 0.366087, pH 6.0, 20 °C): -22.682 | isotherm data point (enthalpy change per injection) (UCP1 [1]; Molar ratio (Nucleotide/UCP) 0.428528, pH 6.0, 20 °C): -21.6485 | isotherm data point (enthalpy change per injection) (UCP1 [1]; Molar ratio (Nucleotide/UCP) 0.491383, pH 6.0, 20 °C): -18.3951 | isotherm data point (enthalpy change per injection) (UCP1 [1]; Molar ratio (Nucleotide/UCP) 0.554656, pH 6.0, 20 °C): -20.6625 | isotherm data point (enthalpy change per injection) (UCP1 [1]; Molar ratio (Nucleotide/UCP) 0.618348, pH 6.0, 20 °C): -18.8854 | isotherm data point (enthalpy change per injection) (UCP1 [1]; Molar ratio (Nucleotide/UCP) 0.682464, pH 6.0, 20 °C): -18.4581 | isotherm data point (enthalpy change per injection) (UCP1 [1]; Molar ratio (Nucleotide/UCP) 0.747006, pH 6.0, 20 °C): -16.8767 | isotherm data point (enthalpy change per injection) (UCP1 [1]; Molar ratio (Nucleotide/UCP) 0.811976, pH 6.0, 20 °C): -15.5439 | isotherm data point (enthalpy change per injection) (UCP1 [1]; Molar ratio (Nucleotide/UCP) 0.877378, pH 6.0, 20 °C): -14.5814 | isotherm data point (enthalpy change per injection) (UCP1 [1]; Molar ratio (Nucleotide/UCP) 0.943214, pH 6.0, 20 °C): -11.542 | isotherm data point (enthalpy change per injection) (UCP1 [1]; Molar ratio (Nucleotide/UCP) 1.00949, pH 6.0, 20 °C): -9.131 | isotherm data point (enthalpy change per injection) (UCP1 [1]; Molar ratio (Nucleotide/UCP) 1.0762, pH 6.0, 20 °C): -6.9461 | isotherm data point (enthalpy change per injection) (UCP1 [1]; Molar ratio (Nucleotide/UCP) 1.14336, pH 6.0, 20 °C): -4.409 | isotherm data point (enthalpy change per injection) (UCP1 [1]; Molar ratio (Nucleotide/UCP) 1.21096, pH 6.0, 20 °C): -2.755 | isotherm data point (enthalpy change per injection) (UCP1 [1]; Molar ratio (Nucleotide/UCP) 1.27901, pH 6.0, 20 °C): -1.022 | isotherm data point (enthalpy change per injection) (UCP1 [1]; Molar ratio (Nucleotide/UCP) 1.34751, pH 6.0, 20 °C): -0.7829 | isotherm data point (enthalpy change per injection) (UCP1 [1]; Molar ratio (Nucleotide/UCP) 1.41647, pH 6.0, 20 °C): -1.325 | isotherm data point (enthalpy change per injection) (UCP1 [1]; Molar ratio (Nucleotide/UCP) 1.48589, pH 6.0, 20 °C): -0.8361 | isotherm data point (enthalpy change per injection) (UCP1 [1]; Molar ratio (Nucleotide/UCP) 1.55577, pH 6.0, 20 °C): 0.501 | isotherm data point (enthalpy change per injection) (UCP1 [1]; Molar ratio (Nucleotide/UCP) 1.62611, pH 6.0, 20 °C): 0.6153 | isotherm data point (enthalpy change per injection) (UCP1 [1]; Molar ratio (Nucleotide/UCP) 1.69692, pH 6.0, 20 °C): 0.02513 | isotherm data point (enthalpy change per injection) (UCP1 [1]; Molar ratio (Nucleotide/UCP) 1.76819, pH 6.0, 20 °C): -0.2521 | isotherm data point (enthalpy change per injection) (UCP1 [1]; Molar ratio (Nucleotide/UCP) 1.83995, pH 6.0, 20 °C): 0.8236 | isotherm data point (enthalpy change per injection) (UCP1 [1]; Molar ratio (Nucleotide/UCP) 1.91217, pH 6.0, 20 °C): 0.03383 | isotherm data point (enthalpy change per injection) (UCP1 [1]; Molar ratio (Nucleotide/UCP) 1.98488, pH 6.0, 20 °C): 0.2054 | difference in ΔTm versus GTP (UCP1 [2]; 1 mM nucleotide, pH 6.0): 2.7 °C | temperature shift (ΔTm) (UCP1 [2]; 1 mM nucleotide, pH 6.0, detergent-solubilised UCP1, mean of three biological repeats): 18.9 °C | ΔTm at 1000 µM (UCP1 [2]; pH 6, read-out: thermal shift (ΔTm), 1 mM nucleotide, pH 6.0, single repeats (source data Fig. 1D)): 19 °C | ΔTm at 1000 µM (UCP1 [2]; pH 6.5, read-out: thermal shift (ΔTm), 1 mM nucleotide, pH 6.5, single repeats (source data Fig. 1D)): 14.8 °C | ΔTm at 1000 µM (UCP1 [2]; pH 7, read-out: thermal shift (ΔTm), 1 mM nucleotide, pH 7.0, single repeats (source data Fig. 1D)): 10.1 °C | ΔTm at 1000 µM (UCP1 [2]; pH 7.5, read-out: thermal shift (ΔTm), 1 mM nucleotide, pH 7.5, single repeats (source data Fig. 1D)): 4 °C | Proton influx rate (UCP1 [3]): 84.11 nmol H+/min and 42.34 nmol H+/min and 68.93 nmol H+/min | change in apparent melting temperature (ΔTm) of hOGC (human OGC (SLC25A11)): 0.5 and 0.3
